Test results reported in ChEMBL document CHEMBL5512633, “Hit-to-lead optimization of 2-aminoquinazolines as anti-microbial agents against Leishmania donovani” (Eur J Med Chem, 2024).
Activity calls are given as the source filed them. The calls are words filed in the database; no cut-off is given here.

Legend:
Leishmania donovani [1] = assay: Antileishmanial activity against Leishmania donovani MHOM/IN/1983/AG83 axenic amastigotes assessed as inhibition of growth incubated for 48 hrs by flow cytometric analysis; assay type: functional, organism-based; details: MHOM/IN/1983/AG83, 48 h
[2] = Cytotoxicity against human THP-1 cells incubated for 72 hrs by DAPI staining based analysis; assay type: toxicity, cell-based
Leishmania donovani [3] = assay: Antileishmanial activity against Leishmania donovani MHOM/IN/1983/AG83 axenic amastigotes assessed as inhibition of growth at 30 uM incubated for 48 hrs by flow cytometric analysis relative to control; assay type: functional
[4] = Stability in human plasma assessed as compound remaining measured after 2 hrs by LC-MS/MS analysis; assay type: ADME, cell-free; details: read-out: Stability
[5] = Stability in mouse plasma assessed as compound remaining measured after 2 hrs by LC-MS/MS analysis; assay type: ADME, cell-free; details: read-out: Stability
[6] = Lipophilicity, logD of compound in 1-octanol and phosphate buffer at pH 7.4 by HPLC-UV analysis; assay type: physicochemical; details: 1-octanol/phosphate buffer
[7] = Metabolic stability in human liver microsomes assessed as half-life preincubated for 10 mins and measured after 60 mins by LC-MS/MS analysis; assay type: ADME, Microsome
[8] = Metabolic stability in mouse liver microsomes assessed as half-life preincubated for 10 mins and measured after 60 mins by LC-MS/MS analysis; assay type: ADME, Microsome
[9] = Metabolic stability in human liver microsomes assessed as hepatic blood flow preincubated for 10 mins and measured after 60 mins by LC-MS/MS analysis; assay type: ADME, Microsome; details: read-out: QH
[10] = Metabolic stability in mouse liver microsomes assessed as hepatic blood flow preincubated for 10 mins and measured after 60 mins by LC-MS/MS analysis; assay type: ADME, Microsome; details: read-out: QH
Leishmania donovani [11] = assay: Antileishmanial activity against Leishmania donovani; assay type: functional, organism-based
[12] = Cytotoxicity against human HepG2 cells incubated for 48 hrs by PI staining based flow cytometric analysis; assay type: toxicity, cell-based
[13] = Selectivity index, ratio of CC50 for cytotoxicity against human HepG2 cells to IC50 for antileishmanial activity against Leishmania donovani MHOM/IN/1983/AG83 axenic amastigotes; assay type: toxicity, cell-based; details: read-out: Ratio CC50/IC50

remaining at 2 h [4] | remaining at 2 h [5] | logD [6] | SMILES | IC50 (Leishmania donovani [1]) | CC50 at 72 h [2] | other results
 |  |  | COc1ccc(CNc2nc(N3CCCCC3)c3cc(OC)c(O)cc3n2)cc1 | 12.3 µM | > 50 µM | 
 |  |  | COc1cc2c(N3CCCCC3)nc(NC(=O)c3ccc(C(F)(F)F)cc3)nc2cc1OC1CCCC1 |  | 79 µM | inhibition at 30 µM (Leishmania donovani [3]): ~34.5%
 |  |  | COc1cc2c(N3CCCCC3)nc(NCc3ccc(F)cc3)nc2cc1OCc1ccccc1 | 10.5 µM | 26.9 µM | 
 |  |  | COc1cc2c(N3CCCCC3)nc(NS(C)(=O)=O)nc2cc1OCc1ccccc1 |  | > 50 µM | inhibition at 30 µM (Leishmania donovani [3]): ~5.5%
 |  |  | COc1cc2c(N3CCCCC3)nc(N)nc2cc1OC1CCCC1 | 19.4 µM | > 100 µM | 
 |  |  | COc1cc2c(N3CCCCC3)nc(Cl)nc2cc1OCc1ccccc1 |  | > 100 µM | inhibition (Leishmania donovani [3]): inactive
 |  |  | COc1cc2c(N3CCCCC3)nc(N(C)Cc3ccc(Br)cc3)nc2cc1OC1CCCC1 | 54 µM | 34.4 µM | 
 |  |  | COc1cc2c(N(C)C)nc(NCc3ccc(Br)cc3)nc2cc1O | 4.78 µM |  | 
93.7% | 88.7% | 2.59 | COc1cc2c(N3CCCCC3)nc(NCc3ccccc3)nc2cc1OC1CCCC1 | 7.49 µM | 4.13 µM | half-life [7]: 20.8 min; half-life [8]: 19.2 min; hepatic extraction ratio at 1 h [9]: 0.607; hepatic extraction ratio at 1 h [10]: 0.496
 |  |  | COc1cc2nc(NCc3ccc(F)cc3)nc(N3CCCCC3)c2cc1OC | 13.7 µM | 11.1 µM | 
 |  |  | COc1cc2c(N3CCCCC3)nc(N(C)C)nc2cc1O |  | 73.4 µM | inhibition at 30 µM (Leishmania donovani [3]): ~18.8%
 |  |  | COc1cc2c(N3CCCCC3)nc(NCc3ccccc3)nc2cc1O | 11.3 µM | 30.2 µM | 
81.2% | 91.6% | 2.46 | COc1cc2c(N(C)C)nc(NCc3ccc(F)cc3)nc2cc1OC1CCCC1 | 5.67 µM | 3.79 µM | half-life [7]: 8.1 min; half-life [8]: 6.9 min; hepatic extraction ratio at 1 h [9]: 0.799; hepatic extraction ratio at 1 h [10]: 0.733
 |  |  | COc1cc2c(N3CCCCC3)nc(NC(=O)c3ccc(Cl)cc3)nc2cc1OC1CCCC1 | 16.6 µM | 7.58 µM | 
 |  |  | COc1cc2c(N3CCCCC3)nc(N)nc2cc1OCc1ccccc1 | 12 µM | 15.4 µM | 
 |  |  | COc1cc2c(N3CCCCC3)nc(NCc3ccc([N+](=O)[O-])cc3)nc2cc1OC1CCCC1 | 9.63 µM | 5.68 µM | 
 |  |  | Cc1cc(N2CCc3ccccc3C2)nc(Nc2ccc(S(=O)(=O)N3CCOCC3)cc2)n1 |  |  | IC50 (Leishmania donovani [11]): 5 µM
70.2% | 106% | 2.39 | COc1ccc(CNc2nc(N3CCCCC3)c3cc(OC)c(OCc4ccccc4)cc3n2)cc1 | 10.3 µM | 19.5 µM | half-life [7]: 32.2 min; half-life [8]: 15.5 min; hepatic extraction ratio at 1 h [9]: 0.499; hepatic extraction ratio at 1 h [10]: 0.548
 |  |  | COc1cc2c(N3CCCCC3)nc(NCc3ccc(F)cc3)nc2cc1O | 12.2 µM | 28.2 µM | 
 |  |  | COc1ccc(CNc2nc(N3CCCCC3)c3cc(OC)c(OC4CCCC4)cc3n2)cc1 | 16.6 µM | 4.56 µM | 
 |  |  | COc1ccc(-c2cnc(NC(=O)c3ccc(F)cc3)n2C)cc1 | 15 µM | > 50 µM | IC50 (Leishmania donovani [11]): 1.2 µM
83.8% | 80.1% | 2.74 | COc1cc2c(N3CCCCC3)nc(N(C)C)nc2cc1OC1CCCC1 | 6.85 µM | 74.3 µM | CC50 at 48 h [12]: 66.1 µM; selectivity ratio [13]: 9.65; half-life [7]: 39 min; half-life [8]: 13.7 min; hepatic extraction ratio at 1 h [9]: 0.452; hepatic extraction ratio at 1 h [10]: 0.579
46% | 99.3% | 3.34 | COc1cc2c(N3CCCCC3)nc(NCC3CCCCC3)nc2cc1OC1CCCC1 | 4.36 µM | 6.97 µM | half-life [7]: 22.2 min; half-life [8]: 16.3 min; hepatic extraction ratio at 1 h [9]: 0.747; hepatic extraction ratio at 1 h [10]: 0.699

remaining at 2 h [4] | remaining at 2 h [5] | logD [6] | SMILES | IC50 (Leishmania donovani [1]) | CC50 at 72 h [2] | other results
 |  |  | COc1cc2c(N3CCCCC3)nc(NCc3ccc(C)cc3)nc2cc1OC1CCCC1 | 5.32 µM | 3.49 µM | 
 |  |  | COc1cc2c(N3CCCCC3)nc(Nc3ccc(Cl)cc3)nc2cc1OC1CCCC1 | 22.7 µM | 37.5 µM | 
 |  |  | O=C1CN(C(=O)c2cccc(Nc3ncc(-c4ccc5c(c4)OCO5)cn3)c2)CCN1 |  |  | IC50 (Leishmania donovani [11]): 5 µM
 |  |  | COc1cc2c(N3CCCCC3)nc(N(C)Cc3ccc(Cl)cc3)nc2cc1OC1CCCC1 | 10.2 µM | > 50 µM | 
63% | 44% | 3.66 | COc1cc2c(N3CCCCC3)nc(NCc3ccc(C(C)(C)C)cc3)nc2cc1OC1CCCC1 | 4.93 µM | 2.63 µM | half-life [7]: 117 min; half-life [8]: 22.8 min; hepatic extraction ratio at 1 h [9]: 0.216; hepatic extraction ratio at 1 h [10]: 0.454
77.5% | 97.4% | 2.42 | Clc1ccc(CNc2nc(N3CCCCC3)c3cc4c(cc3n2)OCO4)cc1 | 13.5 µM | 13.8 µM | half-life [7]: 16 min; half-life [8]: 10.8 min; hepatic extraction ratio at 1 h [9]: 0.668; hepatic extraction ratio at 1 h [10]: 0.637
96.2% | 92.6% | 2.6 | COc1cc2c(N3CCCCC3)nc(NCc3ccc(Br)cc3)nc2cc1OC1CCCC1 | 2.57 µM | 15.2 µM | CC50 at 48 h [12]: 28.1 µM; selectivity ratio [13]: 10.9; half-life [7]: 83.4 min; half-life [8]: 46.5 min; hepatic extraction ratio at 1 h [9]: 0.281; hepatic extraction ratio at 1 h [10]: 0.288
 |  |  | COc1cc2c(N3CCCCC3)nc(NS(C)(=O)=O)nc2cc1OC1CCCC1 |  | 57.9 µM | inhibition at 30 µM (Leishmania donovani [3]): ~5.1%
 |  |  | COc1cc2c(N(C)C)nc(NCc3ccc(Br)cc3)nc2cc1OC1CCNC1 (configuration not stated) | 3.26 µM |  | 
103% | 92.2% | 3.14 | COc1cc2c(N3CCCCC3)nc(NCc3ccc(Cl)cc3)nc2cc1OC1CCCC1 | 8.13 µM | 12.2 µM | half-life [7]: 19.1 min; half-life [8]: 17.5 min; hepatic extraction ratio at 1 h [9]: 0.627; hepatic extraction ratio at 1 h [10]: 0.519
 |  |  | COc1cc2c(N3CCCCC3)nc(NCc3ccccc3)nc2cc1OCc1ccccc1 | 9.54 µM | > 100 µM | 
 |  |  | COc1ccc(-c2cnc(NC(=O)c3cc(-c4ccccn4)n[nH]3)n2C)cc1 |  |  | IC50 (Leishmania donovani [11]): 1 µM
 |  |  | COc1cc2c(N3CCCCC3)nc(NS(C)(=O)=O)nc2cc1O |  | > 100 µM | inhibition at 30 µM (Leishmania donovani [3]): ~3.25%
59.3% | 95.6% | 3.22 | COc1cc2c(N3CCOCC3)nc(NCc3ccc(F)cc3)nc2cc1OC1CCCC1 | 12 µM | > 50 µM | half-life [7]: 6 min; half-life [8]: 6.9 min; hepatic extraction ratio at 1 h [9]: 0.843; hepatic extraction ratio at 1 h [10]: 0.732
97.5% | 88.1% | 2.94 | COc1cc2c(N3CCCCC3)nc(NCc3ccc(C(F)(F)F)cc3)nc2cc1OC1CCCC1 | 17.9 µM | 28.1 µM | half-life [7]: 38.9 min; half-life [8]: 20.3 min; hepatic extraction ratio at 1 h [9]: 0.455; hepatic extraction ratio at 1 h [10]: 0.484
105% | 96.9% | 2.64 | COc1cc2c(N3CCCCC3)nc(NCc3ccc(F)cc3)nc2cc1OC1CCCC1 | 10.2 µM | 46.5 µM | half-life [7]: 12.4 min; half-life [8]: 13 min; hepatic extraction ratio at 1 h [9]: 0.722; hepatic extraction ratio at 1 h [10]: 0.592
 |  |  | COc1cc2c(N3CCCCC3)nc(NCc3ccc(C(F)(F)F)cc3)nc2cc1O | 8.91 µM | 27.1 µM | 
99% | 99.1% | 2.37 | COc1cc2c(N3CCCCC3)nc(NCc3ccc(F)cc3)nc2cc1OC1CCNC1 (configuration not stated) | 4.66 µM | 6.3 µM | CC50 at 48 h [12]: 10.1 µM; selectivity ratio [13]: 2.18; half-life [7]: > 120 min; half-life [8]: 52.1 min; hepatic extraction ratio at 1 h [9]: 0.21; hepatic extraction ratio at 1 h [10]: 0.42
 |  |  | COc1cc2c(N3CCCCC3)nc(NC3CCCCC3)nc2cc1OC1CCCC1 | 3.28 µM | 10.2 µM | 
 |  |  | CCCCCCCCCCCCCCCCOP(=O)([O-])OCC[N+](C)(C)C [MILTEFOSINE] | 5.37 µM | 25 µM | CC50 at 48 h [12]: 51.6 µM; selectivity ratio [13]: 9.38
 |  |  | CCCCc1ccc(CNc2nc(N3CCCCC3)c3cc(OC)c(OC4CCCC4)cc3n2)cc1 |  | 5.69 µM | inhibition at 30 µM (Leishmania donovani [3]): ~17%
73.2% | 88.9% | 2.22 | CNc1nc(NCc2ccc(F)cc2)nc2cc(OC3CCCC3)c(OC)cc12 | 1.55 µM | 2.29 µM | half-life [7]: 11.4 min; half-life [8]: 9.1 min; hepatic extraction ratio at 1 h [9]: 0.738; hepatic extraction ratio at 1 h [10]: 0.674
 |  |  | COc1cc2c(N3CCCCC3)nc(N)nc2cc1O |  | 22.2 µM | inhibition at 30 µM (Leishmania donovani [3]): ~13.6%

SMILES | remaining at 2 h [4] | remaining at 2 h [5] | logD [6] | IC50 (Leishmania donovani [1]) | CC50 at 72 h [2] | other results
CC(C)[N+](C)(CCOC(=O)C1c2ccccc2Oc2ccccc21)C(C)C [PROPANTHELINE] | 1.2% | 37.2% |  |  |  | 
O=c1c(O)c(-c2ccc(O)c(O)c2)oc2cc(O)cc(O)c12 [QUERCETIN] |  |  | 2.5 |  |  | 
